According to ChEMBL document CHEMBL1136434, “5-aryl-pyrazolo[3,4-b]pyridazines: potent inhibitors of glycogen synthase kinase-3 (GSK-3)” (Bioorg Med Chem Lett, 2003):

What follows are compounds tested against Cyclin-dependent kinase 2 (Homo sapiens) (UniProt P24941).

| Compound | cKi [nM] |
| --- | --- |
| CCN1CCC(CC(=O)Nc2n[nH]c3nnc(-c4cccc(F)c4F)cc23)CC1 | 540 |
| CN(C)CCCC(=O)Nc1n[nH]c2nnc(-c3ccccc3)cc12 | 1700 |
| O=C(Nc1n[nH]c2nnc(-c3cccc(F)c3F)cc12)C1CCCC1 | 5 |

Now from value to compound:

| cKi [nM] | Compound |
| --- | --- |
| 5 | O=C(Nc1n[nH]c2nnc(-c3cccnc3)cc12)C1CC1 |
| 450 | CCN1CCC(C(=O)Nc2n[nH]c3nnc(-c4cccc(F)c4F)cc23)CC1 |
